According to US12612386B2, “Heteroaryl-triazole compounds as pesticides” (Bayer Aktiengesellschaft, priority 2020, dated 2026):

Experiments:
Type in all cases: in vivo
[1] = system: cattle tick larvae (Rhipicephalus microplus), strain Parkhurst, resistant against synthetic pyrethroids; experiment: Rhipicephalus (Boophilus) microplus in-vitro contact test, larval cattle tick; details: 5 μg/cm^2 (=500 g/ha), after 48 hours
Protocol: Rhipicephalus (Boophilus) Microplus—In-Vitro Contact Tests Larval Cattle Tick (Strain Parkhurst, Resistant Against Synthetic Pyrethroids)
(§1) 9 mg compound is solved in 1 mL acetone and diluted with acetone to the desired concentration. 250 μL of the test solution is filled in 25 mL glass test tubes and homogeneously distributed on the inner walls by rotation and tilting on a shaking device (2 h at 30 rpm). With a compound concentration of 900 ppm, an inner surface of 44.7 cm^2 and a homogeneous distribution, a dose of 5 μg/cm^2 is achieved.
After the solvent has evaporated, each test tube is filled with 20-50 cattle tick larvae (Rhipicephalus microplus), closed with a perforated lid and incubated in a horizontal position at 85% relative humidity and 27° C. in an incubator. After 48 hours efficacy is determined. The larvae are patted on the ground of the tubes and negative geotactic behavior is recorded.
An efficacy of 100% means all larvae are dead or moribund; 0% means no larvae are dead or moribund.

[2] = system: adult cat fleas (Ctenocephalides felis); experiment: Ctenocephalides felis in-vitro contact test, adult cat flea; details: 5 μg/cm^2 (=500 g/ha), after 48 hours
Protocol: Ctenocephalides felis—In-Vitro Contact Tests Adult Cat Flea
as §1
(§2) After the solvent has evaporated, each test tube is filled with 5-10 adult cat fleas (Ctenocephalides felis), closed with a perforated lid and incubated in a lying position at room temperature and relative humidity. After 48 hours efficacy is determined. The fleas are patted on the ground of the tubes and are incubated on a heating plate at 45-50° C. for at most 5 minutes. Immotile or uncoordinated moving fleas, which are not able to escape the heat by climbing upwards, are marked as dead or moribund.
An efficacy of 100% means all fleas are dead or moribund; 0% means no fleas are dead or moribund.

[3] = system: adult brown dog ticks (Rhipicephalus sanguineus); experiment: Rhipicephalus sanguineus in-vitro contact test, adult brown dog ticks; details: 48 h, read-out: efficacy (ticks dead or moribund)
Protocol: Rhipicephalus sanguineus—In-Vitro Contact Tests with Adult Brown Dog Ticks
as §1
as §2, with “brown dog ticks (Rhipicephalus sanguineus),” for “cat fleas (Ctenocephalides felis),”, “ticks” for “fleas”, “ticks,” for “fleas,”
An efficacy of 100% means all ticks are dead or moribund; 0% means no ticks are dead or moribund.

[4] = system: larvae of the banded cucumber beetle (Diabrotica balteata); experiment: Diabrotica balteata spray test; details: 168 h, 100 g/ha (=32 μg/well), after 7 days, read-out: efficacy (seedling growth)
In short: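 Efficacy is seedling survival after 7 days, where 0% means no seedlings grew and 100% means growth equal to untreated, uninfested controls. Wheat seedlings, germinated on agar for 1 day, were sprayed with the aqueous emulsifier dilution (acetone/DMF solvent) and then exposed to 10–20 banded cucumber beetle larvae.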

[5] = system: green peach aphid (Myzus persicae); experiment: Myzus persicae spray test (MYZUPE); details: 120 h; for mortality at 100 g/ha: after 5 days
In short: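 Percent aphid kill, with 0% meaning none killed, was read 5 days after spraying. The preparation (acetone–DMF solvent, water with 1000 ppm emulsifier) was applied to Brassica pekinensis leaf disks carrying mixed-instar green peach aphids.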

[6] = system: larvae of the southern green stink bug (Nezara viridula); experiment: whole plant or invertebrate; details: 96 h
In short: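 Percent mortality of southern green stink bug larvae was recorded at day 4, with 100% meaning all dead. The larvae were placed on barley sprayed with the test solution. That solution was prepared from acetone/dimethylformamide concentrate diluted in emulsifier-containing water (1000 ppm).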

[7] = system: brown planthopper (Nilaparvata lugens); experiment: Nilaparvata lugens spray test; details: 96 h
In short: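 Rice plants (Oryza sativa) sprayed with compound formulated in acetone/DMF with alkylarylpolyglycol ether emulsifier (1000 ppm in diluting water), then infested with planthoppers. Mortality (%) scored after 4 days; 100% = all insects killed, 0% = none killed.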

[8] = system: fall armyworm larvae (Spodoptera frugiperda); experiment: whole plant or invertebrate; details: 168 h
In short: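 Percent kill of Spodoptera frugiperda caterpillars, read 7 days after infestation of dried, spray-treated Zea mays leaf pieces. Spray preparation: compound in acetone plus dimethylformamide, diluted with emulsifier-containing water.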

[9] = system: adult mosquitoes Aedes aegypti strain MONHEIM; experiment: Aedes aegypti test (AEDSAE surface treatment & contact assay); details: 24 hours after contact, read-out: efficacy (mortality); for mortality at 4 mg/m2: surface concentration 4 mg/m^2, 30 min exposure; for mortality at 20 mg/m2: surface concentration 20 mg/m^2, 30 min exposure
Protocol: Aedes aegypti Test (AEDSAE Surface Treatment & Contact Assay)
(§3) Solvent: Aceton+2000 ppm rapeseed oil methyl ester (RME)
(§4) This solution is pipetted onto a glazed tile and after evaporation of the acetone, adult mosquitoes of the species Aedes aegypti strain MONHEIM are placed onto the dried surface. The exposure time is 30 minutes. Mortality in percent (%) is determined 24 hours after contact of the insects to the treated surface. 100% mortality means that all tested insects are dead, whereas 0% means that no insect died.

[10] = system: adult flies Musca domestica strain WHO-N; experiment: Musca domestica test (MUSCDO surface treatment & contact assay); details: 24 hours after contact, read-out: efficacy (mortality); for mortality at 20 mg/m2: surface concentration 20 mg/m^2, 30 min exposure
Protocol: Musca domestica Test (MUSCDO Surface Treatment & Contact Assay)
as §3
as §4, with “flies” for “mosquitoes”, “Musca domestica” for “Aedes aegypti”, “WHO-N” for “MONHEIM”

Row | Structure (SMILES) | efficacy (larvae dead or moribund) [1] [%] | efficacy (fleas dead or moribund) [2] [%] | pest or weed control at 5 µg/cm2, 500 g/ha [3] [%] | pest or weed control at 32 µg/disc, 100 g/ha [4] [%] | mortality at 100 g/ha [5] [%] | mortality at 500 g/ha [6] [%] | mortality at 500 g/ha [7] [%] | mortality at 100 g/ha [8] [%] | mortality at 100 g/ha [6] [%] | mortality at 4 mg/m2 [9] [%] | mortality at 20 mg/m2 [9] [%] | Emax at 4 g/ha ([5]; MYZUPE, 4 g ai/ha, 5 dat (Table 4), read-out: % Efficacy) [%] | Emax at 20 g/ha ([5]; MYZUPE, 20 g ai/ha, 5 dat (Table 4), read-out: % Efficacy) [%] | Emax at 100 g/ha ([5]; MYZUPE, 100 g ai/ha, 5 dat (Table 4), read-out: % Efficacy) [%] | Emax at 20 g/ha ([8]; SPODFR, 20 g ai/ha, 7 dat (Table 4), read-out: % Efficacy) [%] | Emax at 100 g/ha ([8]; SPODFR, 100 g ai/ha, 7 dat (Table 4), read-out: % Efficacy) [%] | mortality at 20 mg/m2 [10] [%] | mortality at 4 mg/m2 ([10]; surface concentration 4 mg/m^2, 30 min exposure) [%]
1 | CNC(=O)c1cc(-n2ncnc2[C@H](C)NC(=O)c2cc(OC(F)F)cc(C3CC3)c2)ncn1 [I-67] | 100 | 100 | 100 | 100 | 90 | 100 | 100 | 100 |  |  |  |  |  |  |  |  |  | 
2 | CC(C)N(C)C(=O)c1cc(-n2ncnc2[C@H](C)NC(=O)c2cc(OC(F)(F)F)cc(C3CC3)c2)ncn1 [I-57] | 100 | 100 | 100 |  |  |  | 100 | 100 |  |  |  |  |  |  |  |  |  | 
3 | C[C@H](NC(=O)c1cc(OC(F)F)cc(OC(F)(F)F)c1)c1ncnn1-c1cc(C(N)=O)ncn1 [I-141] | 100 | 100 | 100 | 100 | 90 | 100 | 100 | 100 |  |  |  |  |  |  |  |  |  | 
4 | Cc1nc([C@H](C)NC(=O)c2cc(C(F)(F)F)cc(C(F)(F)F)c2)n(-c2cc(C(=O)N(C)CC3CC3)ncn2)n1 [I-75] | 100 | 100 | 100 | 100 |  | 100 | 100 | 100 |  |  |  |  |  |  |  |  |  | 
5 | C[C@H](NC(=O)c1cc(Br)cc(Br)c1)c1ncnn1-c1cc(C(N)=O)ncn1 [I-34, 6-[5-[(1S)-1-[(3,5-dibromobenzoyl)amino]ethyl]-1,2,4-triazol-1-yl]pyrimidine-4-carboxamide] | 100 | 100 | 100 | 100 | 90 | 100 |  | 100 | 100 | 80 to 100 | 80 to 100 |  |  |  |  |  |  | 
6 | CNC(=O)c1cc(-n2ncnc2[C@H](C)NC(=O)c2cc(Cl)cc(S(=O)(=O)C(F)(F)F)c2)ncn1 [I-86] |  |  |  | 100 | 100 | 100 |  | 100 |  | 80 to 100 | 80 to 100 | 100 | 100 | 100 | 100 | 100 | 80 to 100 | 
7 | C[C@H](NC(=O)c1cc(Br)cc(OC(F)F)c1)c1ncnn1-c1cc(C#N)ncn1 [I-3] | 100 | 100 | 100 | 100 | 90 | 90 |  | 100 | 90 |  | 80 to 100 |  |  |  |  |  |  | 
8 | CCN(C)C(=O)c1cc(-n2nc(C)nc2[C@H](C)NC(=O)c2cc(C(F)(F)F)cc(C(F)(F)F)c2)ncn1 [I-63] | 100 | 100 | 100 | 100 |  |  | 100 | 100 |  |  |  |  |  |  |  |  |  | 
9 | C[C@H](NC(=O)c1cccc(OC(F)(F)F)c1)c1ncnn1-c1cc(C(N)=O)ncn1 [I-50] | 100 | 100 | 100 | 100 | 90 |  | 100 | 100 |  |  |  |  |  |  |  |  |  | 
10 | C[C@H](NC(=O)c1cc(F)cc(OC(F)(F)F)c1)c1ncnn1-c1cc(C(N)=O)ncn1 [I-80] | 100 | 100 | 100 | 100 | 100 | 100 | 100 | 100 |  |  |  |  |  |  |  |  |  | 
11 | Cc1nc([C@H](C)NC(=O)c2cc(C(F)(F)F)cc(C(F)(F)F)c2)n(-c2cc(C#N)ncn2)n1 [I-5] | 100 | 90 | 100 | 100 | 90 |  |  | 100 |  |  | 80 to 100 |  |  |  |  |  |  | 
12 | CCN(C)C(=O)c1cc(-n2ncnc2[C@H](C)NC(=O)c2cc(C(F)(F)F)cc(C(F)(F)F)c2)ncn1 [I-64] | 100 | 100 | 100 | 100 | 90 | 100 | 100 | 100 |  |  |  |  |  |  |  |  |  | 
13 | C[C@H](NC(=O)c1cc(OC(F)(F)F)cc(C2CC2)c1)c1ncnn1-c1cc(C#N)ncn1 [I-10] | 100 |  |  | 100 |  |  |  | 100 |  | 80 to 100 | 80 to 100 |  |  |  |  |  | 80 to 100 | 
14 | Cc1nc([C@H](C)NC(=O)c2cc(Cl)cc(OC(F)(F)F)c2)n(-c2cc(C(N)=O)ncn2)n1 [I-85] | 100 | 100 | 100 | 100 | 100 | 100 | 90 | 100 |  |  |  |  |  |  |  |  |  | 
15 | C[C@H](NC(=O)c1cc(C(F)(F)F)cc(C(F)(F)F)c1)c1ncnn1-c1cc(C(=O)N(C)CC2CC2)ncn1 [I-76] | 100 | 100 | 100 | 100 |  | 100 | 100 | 100 |  |  |  |  |  |  |  |  |  | 
16 | C[C@H](NC(=O)c1cc(C#N)cc(OC(F)(F)F)c1)c1nc(C2CC2)nn1-c1cc(C(N)=O)ncn1 [I-39] |  |  |  | 100 |  |  | 100 | 100 |  |  |  |  |  |  |  |  | 80 to 100 | 80 to 100
